One data set deals with T1, histamine-H3 receptor (Rattus norvegicus, UniProt Q9QYN8).
T1 construct: from tissue; host or cells: living male rat
Nature of the data set: Test for antagonistic effect to water-drinking action induced by histamine-H3 receptor selective agonist, R-α-methylhistamine. The format is in vivo. The conditions noted are these: 10 mg/kg oral, 2 hours before R-α-methylhistamine, water drunk for 1 hour.

The nature of data set [1]: Test for brain/cerebrospinal fluid transition. The format is in vivo. The following applies: SD male rat, 2 hours after oral administration (10 mg/kg). On the procedure: The test compound was orally or intravenously administered to an SD male rat (7 to 10-week age, 200 to 400 g), and under anesthesia with ether for a predetermined period of time, the whole blood was collected from it through the abdominal aorta thereof using a heparin-processed syringe. Next, the head skin was cut, and a dental 30 G needle was stuck into the cervical spine to run through the subarachnoid cavity. Via a tube connected to the dental 30 G needle, from 50 to 100 μL of the cerebrospinal fluid was collected in a 1-mL syringe, and then the brain was taken out. The blood sample was centrifuged (4° C., 6000 revolutions, 10 minutes), and the resulting plasma was stirred with ethanol (containing an internal standard substance) in an amount of three times thereof added to it. The brain sample was homogenized with 2 mL of water added thereto; and a part of it was taken out and stirred with ethanol (containing an internal standard substance) in an amount of three times thereof added to it. The cerebrospinal fluid was stirred with ethanol (containing an internal standard substance) in an amount of three times thereof added to it. The above samples were left at −20° C. for 20 minutes, then centrifuged (4° C., 12,000 g, 10 minutes), and the supernatant was analyzed through LC/MS/MS. According to a relative calibration curve method, the compound concentration in the plasma, in the brain and in the cerebrospinal fluid was determined.

Where two headings read alike, the source gives them in different places.

T1 sequence (Q9QYN8 whole entry): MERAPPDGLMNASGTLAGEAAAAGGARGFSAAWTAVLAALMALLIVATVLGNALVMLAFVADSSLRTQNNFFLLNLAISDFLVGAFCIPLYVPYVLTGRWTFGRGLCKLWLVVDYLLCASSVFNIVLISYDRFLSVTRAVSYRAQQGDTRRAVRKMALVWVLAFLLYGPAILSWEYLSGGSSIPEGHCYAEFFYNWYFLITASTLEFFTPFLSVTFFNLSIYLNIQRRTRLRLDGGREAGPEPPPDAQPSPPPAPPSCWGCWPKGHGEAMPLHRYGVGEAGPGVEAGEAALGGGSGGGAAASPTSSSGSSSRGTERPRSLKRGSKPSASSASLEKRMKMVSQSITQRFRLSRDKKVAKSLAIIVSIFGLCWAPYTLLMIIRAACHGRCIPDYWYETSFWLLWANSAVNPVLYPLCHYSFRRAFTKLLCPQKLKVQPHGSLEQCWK
Experimental for histamine-H3 receptor: Under anesthesia with ketamine xylazine (74 and 11 mg/kg intraabdominal single administration), a brain stereotaxic device was set in the third ventricle of a male DS rat (7 to 10-week age, 200 to 300 g), and a chronic guide cannula (26 gauge, length 11 mm) was inserted into it and fixed with a dental resin. The position of the tip of the guide cannula is at 2.2 mm after the bregma on the midline, and at a depth of 8 mm from the surface of the skull. After a restoration term of about 1 week, R-α-methylhistamine (0.3 μg/1 μL/head, 30% propylene glycol liquid) was administered into the third ventricle. The test compound suspended in an aqueous 0.5% methyl cellulose solution was orally administered to the rat before 2 hours before the R-α-methylhistamine administration; and after the R-α-methylhistamine administration, the amount of water drunk by the rat for 1 hour was measured.

Consider `C[C@H]1[C@H](c2ccc(OCCCN3CCCC3)cc2)Oc2ccccc2S1(=O)=O` (single isomer, unassigned) [(2S*,3S*)-2,3-dihydro-3-methyl-2-[4-[3-(1-pyrrolidinyl)propoxy]phenyl]-1,4-benzoxathiin-4,4-dioxide], for which, on histamine-H3 receptor, the “inhibition of the increase in the water drinking induced by R-α-methylhistamine in the third ventricle” value is “significantly inhibited”. In data set [1], the “concentration in the brain” value is reported as 6.96 nmol/g. Further, the concentration at 2 h in data set [1] (cerebrospinal fluid, read-out: concentration in the cerebrospinal fluid) turned out to be 174 nM; in data set [1] (plasma, read-out: concentration in the plasma), 980 nM.

The values are drawn from patent publication US8163770B2, “Benzoxathiin derivative” (MSD. K. K., priority 2005, dated 2012).
